From the supplement of paper PMC10307832

How the values were obtained:
Test in all cases: relative viability (nuclei count vs DMSO), 5 days (fraction); higher = more cells survive
Bortezomib + Palbociclib = compound: CC(C)C[C@H](NC(=O)[C@H](Cc1ccccc1)NC(=O)c1cnccn1)B(O)O [Bortezomib] + CC(=O)c1c(C)c2cnc(Nc3ccc(N4CCNCC4)cn3)nc2n(C2CCCC2)c1=O [Palbociclib] (partner 0.5 µM)
Procedure, shortened: (§1)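 After 5 days of treatment, lung cancer cells in 1536-well plates were fixed and stained in a single step (final 0.05% Triton X-100, 1% formaldehyde, 1 ug/ml Hoechst) and their nuclei counted on 4× images. Treatment had been applied by pin tool the day after seeding as one drug alone or as a fixed anchor-drug dose with five library-drug doses (not always all listed) in √10 steps. Relative viability is the nuclei count of treated wells divided by that of vehicle wells, and values are medians of duplicate plates.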

Bortezomib + AZD7762 = compound: CC(C)C[C@H](NC(=O)[C@H](Cc1ccccc1)NC(=O)c1cnccn1)B(O)O [Bortezomib] + NC(=O)Nc1cc(-c2cccc(F)c2)sc1C(=O)N[C@H]1CCCNC1 [AZD7762] (partner 0.2 µM)
Procedure, shortened: as §1

[1] = compound: CC1=CC(=NN1)NC2=CC(=NC(=N2)/C=C/C3=CC=CC=C3)N4CCN(CC4)C + CC(C)C[C@H](NC(=O)[C@H](Cc1ccccc1)NC(=O)c1cnccn1)B(O)O [Bortezomib] (partner 0.002 µM)
Procedure, shortened: as §1

Obatoclax + Decitabine = compound: COC1=CC(c2cc3ccccc3[nH]2)=N/C1=C\c1[nH]c(C)cc1C [Obatoclax] + Nc1ncn([C@H]2C[C@H](O)[C@@H](CO)O2)c(=O)n1 [Decitabine] (partner 2 µM)
Procedure, shortened: as §1

| Cell Line | relative viability (Bortezomib + Palbociclib; first compound 0.0002 µM) | relative viability (Bortezomib + Palbociclib; first compound 0.000632 µM) | relative viability (Bortezomib + Palbociclib; first compound 0.002 µM) | relative viability (Bortezomib + Palbociclib; first compound 0.006325 µM) | relative viability (Bortezomib + Palbociclib; first compound 0.02 µM) | relative viability (Bortezomib + AZD7762; first compound 0.0002 µM) | relative viability (Bortezomib + AZD7762; first compound 0.000632 µM) | relative viability (Bortezomib + AZD7762; first compound 0.002 µM) | relative viability (Bortezomib + AZD7762; first compound 0.006325 µM) | relative viability (Bortezomib + AZD7762; first compound 0.02 µM) | relative viability ([1]; first compound 0.08 µM) | relative viability ([1]; first compound 0.253 µM) | relative viability ([1]; first compound 0.8 µM) | relative viability ([1]; first compound 2.53 µM) | relative viability ([1]; first compound 8 µM) | relative viability (Obatoclax + Decitabine; first compound 0.01 µM) | relative viability (Obatoclax + Decitabine; first compound 0.03162 µM) | relative viability (Obatoclax + Decitabine; first compound 0.1 µM) | relative viability (Obatoclax + Decitabine; first compound 0.3162 µM) | relative viability (Obatoclax + Decitabine; first compound 1 µM) |
| --- | --- | --- | --- | --- | --- | --- | --- | --- | --- | --- | --- | --- | --- | --- | --- | --- | --- | --- | --- | --- |
| HCC-78 | 0.517 | 0.531 | 0.444 | 0.451 | 0.405 | 0.591 | 0.603 | 0.453 | 0.616 | 0.238 | 0.456 | 0.636 | 0.582 | 0.559 | 0.214 | 0.617 | 0.511 | 0.706 | 0.616 | 0.699 |
| HCC-366 | 0.352 | 0.319 | 0.372 | 0.0727 | 0.0268 | 0.221 | 0.331 | 0.401 | 0.37 | 0.0238 | 0.993 | 1.18 | 1.03 | 0.0189 | 0.0155 | 0.318 | 0.271 | 0.306 | 0.347 | 0.274 |
| HCC-827 | 0.496 | 0.626 | 0.467 | 0.197 | 0.137 | 0.267 | 0.259 | 0.18 | 0.215 | 0.199 | 1.03 | 1.13 | 0.951 | 0.923 | 0.641 | 0.332 | 0.273 | 0.337 | 0.223 | 0.355 |
| HOP-62 | 0.437 | 0.492 | 0.307 | 0.0611 | 0.0516 | 0.603 | 0.387 | 0.51 | 0.25 | 0.043 | 0.9 | 0.549 | 1.07 | 0.403 | 0.107 | 0.257 | 0.177 | 0.206 | 0.277 | 0.214 |
| LC-2-ad | 0.534 | 0.499 | 0.504 | 0.278 | 0.161 | 0.828 | 0.787 | 0.878 | 0.271 | 0.182 | 0.938 | 1.03 | 0.602 | 0.289 | 0.0902 | 0.706 | 0.784 | 0.82 | 0.742 | 0.847 |
| LCLC-97TM1 | 0.235 | 0.183 | 0.12 | 0.0721 | 0.0639 | 0.179 |  | 0.32 | 0.234 | 0.0966 | 0.742 | 0.57 | 0.77 | 0.114 | 0.0579 | 0.216 | 0.197 | 0.196 | 0.214 | 0.192 |
| LCLC-103H | 0.475 | 0.462 | 0.419 | 0.324 | 0.254 | 0.816 | 0.769 | 0.764 | 0.748 | 0.201 | 0.997 | 1.19 | 1.08 | 0.877 | 0.675 | 0.7 | 0.728 | 0.784 | 0.763 | 0.738 |
| LOU-NH91 | 0.512 | 0.523 | 0.383 | 0.32 | 0.302 | 0.729 | 0.68 | 0.361 | 0.348 | 0.339 | 0.403 | 0.472 | 0.537 | 0.474 | 0.358 | 0.743 | 0.833 | 0.728 | 0.758 | 0.606 |
| LU99A | 0.464 | 0.364 | 0.405 | 0.261 | 0.164 | 0.373 | 0.344 | 0.381 | 0.437 | 0.163 | 1.13 | 0.993 | 0.779 | 0.25 | 0.127 | 0.915 | 0.89 |  | 0.847 | 0.976 |
| LXF-289 | 0.573 | 0.58 | 0.633 | 0.102 | 0.0908 | 1.12 | 1.03 | 1.19 | 0.11 | 0.0936 | 0.992 | 0.98 | 0.917 | 0.656 | 0.115 | 0.346 | 0.385 | 0.372 | 0.342 | 0.408 |
| NCI-H23 | 0.456 |  | 0.398 | 0.158 | 0.13 | 0.17 |  | 0.308 | 0.25 | 0.0879 | 0.909 | 0.949 | 0.826 | 0.196 | 0.139 | 0.328 | 0.272 | 0.369 | 0.286 | 0.349 |
| NCI-H322M | 0.486 | 0.448 | 0.463 | 0.441 | 0.404 | 0.539 | 0.636 | 0.654 | 0.385 | 0.393 | 1.14 | 1.24 | 1.17 | 1.1 | 0.258 | 0.701 | 0.687 | 0.856 | 0.818 | 0.662 |
| NCI-H441 | 0.22 | 0.2 | 0.129 | 0.109 | 0.101 | 1.04 | 1.09 | 0.754 | 0.117 | 0.134 | 0.543 | 0.547 | 0.332 | 0.265 | 0.192 | 0.213 | 0.272 | 0.287 | 0.2 | 0.194 |
| NCI-H460 | 0.181 | 0.283 | 0.155 | 0.0455 | 0.0161 | 0.55 | 0.706 | 0.724 | 0.672 | 0.044 | 1.07 | 1.1 | 1 | 0.0197 | 0.0105 | 0.521 | 0.385 | 0.522 | 0.133 | 0.0944 |
| NCI-H647 | 0.385 | 0.251 | 0.426 | 0.0189 | 0.0229 | 0.405 | 0.447 | 0.419 | 0.0227 | 0.0188 | 0.807 | 1.1 | 0.957 | 0.068 | 0.0571 | 0.422 | 0.27 | 0.438 | 0.3 | 0.112 |
| NCI-H727 | 0.751 | 0.603 | 0.623 | 0.684 | 0.23 | 0.631 | 0.611 | 0.688 | 0.698 | 0.595 | 0.841 | 0.586 | 0.867 | 0.463 | 0.255 | 0.916 | 0.731 | 0.798 | 0.591 | 0.872 |
